Assay [1] has as its target T1, mTOR (Homo sapiens, UniProt P42345).
T1 construct: purchased Invitrogen Corporation (Carlsbad/CA, USA) PV4753
In words: Biochemical assay for m-TOR by TR-FRET. To be noted: 8 μM ATP, 400 nM GFP-4EBP1, 0.5 nM mTOR. The essentials: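 Steps: ATP (8 μM final) plus GFP-4EBP1 (400 nM final) combined with mTOR (0.5 nM final), incubated at rt; buffer HEPES pH 7.5 with 10 mM MnCl2, NaCl, EGTA, DTT. Then stopped with EDTA/Tb3+-anti-p4EBP1 pT46 Ab (0.5 nM). Plates read after 15 min.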
On the technique in general: TR-FRET usually uses a lanthanide donor and a delayed reading to cut background.

The target of assay [2] is T2, PI3K delta (Homo sapiens, UniProt O00329).
T2 construct: for the full-length p110-d subunit are generated and fused by overlapping PCR; p85(iSH2) fusion partner (see partner chain) (N); His tag (C); made in house; host or cells: baculovirus; Tn5 (Trichoplusia ni) or TiniPro insect cells
T2 sequence (O00329 with tags, fused parts or gaps limits assumed): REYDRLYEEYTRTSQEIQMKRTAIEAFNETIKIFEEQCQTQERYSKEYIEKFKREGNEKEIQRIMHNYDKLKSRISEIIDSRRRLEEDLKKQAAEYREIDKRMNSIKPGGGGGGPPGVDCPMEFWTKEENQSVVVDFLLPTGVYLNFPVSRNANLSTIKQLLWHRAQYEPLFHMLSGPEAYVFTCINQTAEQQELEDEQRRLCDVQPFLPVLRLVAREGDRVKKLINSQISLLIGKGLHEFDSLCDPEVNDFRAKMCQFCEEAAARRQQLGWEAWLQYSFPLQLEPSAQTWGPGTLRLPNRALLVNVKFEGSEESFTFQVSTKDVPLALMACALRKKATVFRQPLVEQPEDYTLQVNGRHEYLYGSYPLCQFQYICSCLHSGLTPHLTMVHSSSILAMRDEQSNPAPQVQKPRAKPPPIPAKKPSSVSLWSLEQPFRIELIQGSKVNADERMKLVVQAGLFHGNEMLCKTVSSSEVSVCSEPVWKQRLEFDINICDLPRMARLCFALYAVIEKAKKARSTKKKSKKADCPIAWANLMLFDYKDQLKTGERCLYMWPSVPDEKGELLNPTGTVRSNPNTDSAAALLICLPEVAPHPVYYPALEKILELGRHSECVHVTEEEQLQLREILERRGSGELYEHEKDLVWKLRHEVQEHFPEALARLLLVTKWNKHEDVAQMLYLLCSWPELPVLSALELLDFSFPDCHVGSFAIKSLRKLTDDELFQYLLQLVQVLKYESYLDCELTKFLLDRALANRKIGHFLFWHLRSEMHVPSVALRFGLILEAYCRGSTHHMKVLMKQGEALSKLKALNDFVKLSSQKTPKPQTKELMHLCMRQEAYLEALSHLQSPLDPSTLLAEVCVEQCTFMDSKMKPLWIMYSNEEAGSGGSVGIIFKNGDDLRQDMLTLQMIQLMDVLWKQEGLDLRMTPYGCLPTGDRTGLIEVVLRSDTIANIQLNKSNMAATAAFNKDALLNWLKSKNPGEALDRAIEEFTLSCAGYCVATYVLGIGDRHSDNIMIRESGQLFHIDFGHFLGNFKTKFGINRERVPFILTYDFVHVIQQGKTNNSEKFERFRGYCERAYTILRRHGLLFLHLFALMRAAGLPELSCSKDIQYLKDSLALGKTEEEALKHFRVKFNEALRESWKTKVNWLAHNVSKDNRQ
In words: PI3K delta kinase assay (Kinase-Glo luminescence). The format is biochemical. Put shortly: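 Inhibition is derived from luminescent detection of unconsumed ATP. The reaction runs for one hour at ambient temperature and contains the δ isoform fusion protein, phosphatidylinositol substrate and low (1 μM) ATP. Eight compound concentrations are tested in single, and a 4-parameter logistic model is used to calculate IC50.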

T1 sequence (P42345 1360-2549 limits assumed): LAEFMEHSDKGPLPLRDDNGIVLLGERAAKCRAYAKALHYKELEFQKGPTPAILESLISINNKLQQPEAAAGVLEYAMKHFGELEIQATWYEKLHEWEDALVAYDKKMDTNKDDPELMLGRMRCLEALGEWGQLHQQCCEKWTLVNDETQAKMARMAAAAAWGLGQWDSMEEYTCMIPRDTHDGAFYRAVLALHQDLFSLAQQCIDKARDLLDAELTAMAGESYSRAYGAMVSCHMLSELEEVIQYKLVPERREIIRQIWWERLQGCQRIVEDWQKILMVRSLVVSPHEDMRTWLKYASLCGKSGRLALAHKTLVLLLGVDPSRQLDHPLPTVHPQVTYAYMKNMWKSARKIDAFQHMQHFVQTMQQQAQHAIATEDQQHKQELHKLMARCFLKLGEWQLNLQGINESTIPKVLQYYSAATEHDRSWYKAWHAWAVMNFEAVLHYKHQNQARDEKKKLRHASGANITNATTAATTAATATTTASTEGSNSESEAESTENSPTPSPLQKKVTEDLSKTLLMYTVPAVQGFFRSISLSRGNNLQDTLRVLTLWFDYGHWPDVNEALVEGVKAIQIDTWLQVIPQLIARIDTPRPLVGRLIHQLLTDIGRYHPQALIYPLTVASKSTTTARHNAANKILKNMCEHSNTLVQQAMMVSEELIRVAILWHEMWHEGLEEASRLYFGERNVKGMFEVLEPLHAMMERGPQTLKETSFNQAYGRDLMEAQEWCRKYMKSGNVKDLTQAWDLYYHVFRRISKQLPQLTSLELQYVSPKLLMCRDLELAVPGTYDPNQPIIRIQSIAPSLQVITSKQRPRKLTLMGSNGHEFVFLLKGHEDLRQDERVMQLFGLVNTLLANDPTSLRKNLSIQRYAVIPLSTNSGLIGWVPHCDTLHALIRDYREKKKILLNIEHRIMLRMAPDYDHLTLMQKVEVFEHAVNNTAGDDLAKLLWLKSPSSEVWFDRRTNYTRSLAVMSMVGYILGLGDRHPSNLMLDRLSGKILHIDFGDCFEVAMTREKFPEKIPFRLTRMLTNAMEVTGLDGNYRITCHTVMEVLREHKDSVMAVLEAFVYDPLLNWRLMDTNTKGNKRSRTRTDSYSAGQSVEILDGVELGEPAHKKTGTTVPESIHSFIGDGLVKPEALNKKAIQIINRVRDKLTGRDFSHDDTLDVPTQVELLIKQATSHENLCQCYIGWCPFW

Consider `COc1ccc(-c2ccc3ncc4c(c3c2)n(-c2cc(C)nn2C)c(=O)n4C)cc1OC` [Example 1.4, 8-(3,4-Dimethoxy-phenyl)-1-(2,5-dimethyl-2H-pyrazol-3-yl)-3-methyl-1,3-dihydro-imidazo[4,5-c]quinolin-2-one], for which the figures for the IC50 in assay [1] and in assay [2] were 87 nM and 83 nM, respectively. For `Cc1nn(C)c(C)c1-n1c(=O)n(C)c2cnc3ccc(-c4ccc(CO)nc4)cc3c21` [Example 16.4, 8-(6-Hydroxymethyl-pyridin-3-yl)-3-methyl-1-(1,3,5-trimethyl-1H-pyrazol-4-yl)-1,3-dihydro-imidazo[4,5-c]quinolin-2-one], the IC50 in assay [1] stood at 666 nM; in assay [2], 161 nM. For `Cn1cc(-n2c(=O)n(C)c3cnc4ccc(-c5ccc(CO)nc5)cc4c32)c(Cl)n1` [Example 16.5, 1-(3-chloro-1-methyl-1H-pyrazol-4-yl)-8-(6-hydroxymethyl-pyridin-3-yl)-3-methyl-1,3-dihydro-imidazo[4,5-c]quinolin-2-one], the IC50 in assay [1] worked out at 6 nM; in assay [2] it was 3 nM. The like results for `Cn1nccc1-n1c(=O)n(C)c2cnc3ccc(-c4ccc(NCCO)nc4)cc3c21` [Example 21.1, 8-[6-(2-Hydroxy-ethylamino)-pyridin-3-yl]-3-methyl-1-(2-methyl-2H-pyrazol-3-yl)-1,3-dihydro-imidazo[4,5-c]quinolin-2-one] were, in that order, 201 nM and 116 nM. On the same counts, the results for `CCn1cc(-n2c(=O)n(C)c3cnc4ccc(-c5cncc(N)c5)cc4c32)c(C)n1` [Example 45.2, 8-(5-Amino-pyridin-3-yl)-1-(1-ethyl-3-methyl-1H-pyrazol-4-yl)-3-methyl-1,3-dihydro-imidazo[4,5-c]quinolin-2-one] are 24 nM and 4 nM.

As to `Cc1nn(C(C)C)cc1-n1c(=O)n(C)c2cnc3ccc(-c4cncc(N)c4)cc3c21` [Example 45.3, 8-(5-Amino-pyridin-3-yl)-1-(1-isopropyl-3-methyl-1H-pyrazol-4-yl)-3-methyl-1,3-dihydro-imidazo[4,5-c]quinolin-2-one], the IC50 in assay [1] was determined as 7 nM; in assay [2], 10 nM. The like results for `Cc1cnn(C)c1-n1c(=O)n(C)c2cnc3ccc(-c4cncc(OC(C)C)c4)cc3c21` [Example 58.3, 1-(2,4-Dimethyl-2H-pyrazol-3-yl)-8-(5-isopropoxy-pyridin-3-yl)-3-methyl-1,3-dihydro-imidazo[4,5-c]quinolin-2-one] were, in that order, 566 nM and 118 nM.

Consider `COCCOc1cncc(-c2ccc3ncc4c(c3c2)n(-c2cn(C)nc2Cl)c(=O)n4C)c1` [Example 59.2, 1-(3-Chloro-1-methyl-1H-pyrazol-4-yl)-8-[5-(2-methoxy-ethoxy)-pyridin-3-yl]-3-methyl-1,3-dihydro-imidazo[4,5-c]quinolin-2-one], for which the 50% inhibitory concentration (IC50) in assay [1] worked out at 26 nM; in assay [2], 9 nM.

Take `CCOc1ncc(-c2ccc3ncc4c(c3c2)n(-c2cn(C)nc2C)c(=O)n4C)cc1NC(C)=O` [Example 65, N-{5-[1-(1,3-Dimethyl-1H-pyrazol-4-yl)-3-methyl-2-oxo-2,3-dihydro-1H-imidazo[4,5-c]quinolin-8-yl]-2-ethoxy-pyridin-3-yl}-acetamide]: the figures for the IC50 in assay [1] and in assay [2] were 58 nM and 175 nM, respectively. On the same counts, the results for `CCOc1cc(-c2ccc3ncc4c(c3c2)n(-c2c(C)nn(CC(=O)N(C)C)c2C)c(=O)n4C)cnc1C` [Example 85.3, 2-{4-[8-(5-Ethoxy-6-methyl-pyridin-3-yl)-3-methyl-2-oxo-2,3-dihydro-imidazo[4,5-c]quinolin-1-yl]-3,5-dimethyl-pyrazol-1-yl}-N,N-dimethyl-acetamide] are 329 nM and 46 nM. The like results for `CCNc1cc(-c2ccc3ncc4c(c3c2)n(-c2cn(CC)nc2C)c(=O)n4C)cnc1C` [Example 87.3, 8-(5-Ethylamino-6-methyl-pyridin-3-yl)-1-(1-ethyl-3-methyl-1H-pyrazol-4-yl)-3-methyl-1,3-dihydro-imidazo[4,5-c]quinolin-2-one] were, in that order, less than 3 nM and 6 nM. Take `COc1ncc(-c2ccc3ncc4c(c3c2)n(-c2cn(C)nc2Cl)c(=O)n4C)cc1N` [Example 89, 8-(5-Amino-6-methoxy-pyridin-3-yl)-1-(3-chloro-1-methyl-1H-pyrazol-4-yl)-3-methyl-1,3-dihydro-imidazo[4,5-c]quinolin-2-one]: the results for the half-maximal inhibitory concentration (IC50) in assay [1] and in assay [2] were 3 nM and 9 nM, respectively. The like results for `Cc1nn(C)cc1-n1c(=O)n(C)c2cnc3ccc(-c4ccnc(OC(C)C)c4)cc3c21` [Example 92, 1-(1,3-Dimethyl-1H-pyrazol-4-yl)-8-(2-isopropoxy-pyridin-4-yl)-3-methyl-1,3-dihydro-imidazo[4,5-c]quinolin-2-one] were, in that order, 376 nM and 127 nM.

With `CCN(C)c1ccc(-c2ccc3ncc4c(c3c2)n(-c2cn(C)nc2C)c(=O)n4C)cn1` [Example 98.1, 1-(1,3-Dimethyl-1H-pyrazol-4-yl)-8-[6-(ethyl-methyl-amino)-pyridin-3-yl]-3-methyl-1,3-dihydro-imidazo[4,5-c]quinolin-2-one], the IC50 in assay [1] is 20 nM; in assay [2], 48 nM.

On to `Cc1nn(C)cc1-n1c(=O)n(C)c2cnc3ccc(-c4ccc(N5CCNCC5)nc4)cc3c21` [Example 126, 1-(1,3-Dimethyl-1H-pyrazol-4-yl)-3-methyl-8-(6-piperazin-1-yl-pyridin-3-yl)-1,3-dihydro-imidazo[4,5-c]quinolin-2-one], for which the values for the 50% inhibitory concentration (IC50) in assay [1] and in assay [2] were 97 nM and 102 nM, respectively. On the same counts, the results for `Cc1nn(C)cc1-n1c(=O)n(C)c2cnc3ccc(-c4cnc5ccn(C)c5c4)cc3c21` [Example 129, 1-(1,3-Dimethyl-1H-pyrazol-4-yl)-3-methyl-8-(1-methyl-1H-pyrrolo[3,2-b]pyridin-6-yl)-1,3-dihydro-imidazo[4,5-c]quinolin-2-one] are 5 nM and 9 nM.

Turning to `CNc1ncc(-c2ccc3ncc4c(c3c2)n(-c2cn(C(C)C)nc2C)c(=O)n4C)cc1F` [Example 141.3, 8-(5-Fluoro-6-methylamino-pyridin-3-yl)-1-(1-isopropyl-3-methyl-1H-pyrazol-4-yl)-3-methyl-1,3-dihydro-imidazo[4,5-c]quinolin-2-one], the IC50 came out at 27 nM in assay [1] and 9 nM in assay [2]. For `Cc1nn(C(C)C)cc1-n1c(=O)n(C)c2cnc3ccc(-c4cnc(N)c(F)c4)cc3c21` [Example 142.3, 8-(6-Amino-5-fluoro-pyridin-3-yl)-1-(1-isopropyl-3-methyl-1H-pyrazol-4-yl)-3-methyl-1,3-dihydro-imidazo[4,5-c]quinolin-2-one], the results for the IC50 in assay [1] and in assay [2] were 17 nM and 18 nM, respectively. The like results for `CNc1ncc(-c2ccc3ncc4c(c3c2)n(-c2c(C)nn(C)c2C)c(=O)n4C)cc1C(F)(F)F` [Example 144.1, 3-Methyl-8-(6-methylamino-5-trifluoromethyl-pyridin-3-yl)-1-(1,3,5-trimethyl-1H-pyrazol-4-yl)-1,3-dihydro-imidazo[4,5-c]quinolin-2-one] were, in that order, 274 nM and 13 nM. Take `CCNc1ncc(-c2ccc3ncc4c(c3c2)n(-c2c(C)nn(C)c2C)c(=O)n4C)cc1COC` [Example 206.2, 8-(6-Ethylamino-5-methoxymethyl-pyridin-3-yl)-3-methyl-1-(1,3,5-trimethyl-1H-pyrazol-4-yl)-1,3-dihydro-imidazo[4,5-c]quinolin-2-one]: the IC50 in assay [2] amounted to 57 nM.

A word on the IC50: it is the concentration that gives 50% inhibition.

For the origin of these results see patent publication US20140005163A1 (NOVARTIS AG, priority 2010, published 2014).
